Data: patent US6706740B2, “Fungicidal heterocyclic aromatic amides and their compositions, methods of use and preparation” (Dow AgroSciences LLC, priority 1999, dated 2004)
Like-named read-outs stand apart in the source and are kept apart here.

Assays:
[1] = test system: Magnaporthe grisea (Pyricularia oryzae—PYRIOR); assay: microbe, parasite or virus in culture; assay type: cell-based; conditions: Pyricularia oryzae, read-out: PYRIOR in vitro Growth Inhibition
[2] = test system: Rhizoctonia solani (RHIZSO); assay: microbe, parasite or virus in culture; assay type: cell-based; conditions: Rhizoctonia solani, read-out: RHIZSO in vitro Growth Inhibition
[3] = test system: Mycosphaerella graminicola (Septoria tritici—SEPTTR); assay: In vitro fungal growth inhibition, Mycosphaerella graminicola (SEPTTR); assay type: cell-based; conditions: Zymoseptoria tritici, read-out: SEPTTR in vitro Growth Inhibition
[4] = test system: Stagonospora nodorum (Leptosphaeria nodorum—LEPTNO); assay: In vitro fungal growth inhibition, Stagonospora nodorum (LEPTNO); assay type: cell-based; conditions: Leptosphaeria, read-out: LEPTNO in vitro Growth Inhibition
[5] = test system: Ustilago maydis (USTIMA); assay: microbe, parasite or virus in culture; assay type: cell-based; conditions: Mycosarcoma maydis, read-out: USTIMA in vitro Growth Inhibition
[6] = test system: Phytophthora infestans (PHYTIN); assay: microbe, parasite or virus in culture; assay type: cell-based; conditions: Phytophthora infestans, read-out: PHYTIN in vitro Growth Inhibition
[7] = test system: Phytophthora infestans—PHYTIN; assay: whole plant or invertebrate; assay type: in vivo; conditions: Phytophthora, in Solanum lycopersicum, 24 h, read-out: PHYTIN in vivo 1 Day Protectant
[8] = test system: Puccinia recondita—PUCCRT; assay: Brown Rust of Wheat, in vivo whole plant, 24 Hour Protectant; conditions: for PUCCRT in vivo 1 Day Protectant: % control of fungal infection vs untreated plants; for pest or weed control at 100 ppm: Puccinia, control of fungal infection vs untreated plants, read-out: PUCCRT in vivo 1 Day Protectant
[9] = test system: Erysiphe graminis—ERYSGT; assay: Powdery Mildew of Wheat, in vivo whole plant, 24 Hour Protectant; conditions: Erysiphe, read-out: ERYSGT in vivo 1 Day Protectant
[10] = test system: Septoria tritici—SEPTTR; assay: Leaf Blotch of Wheat, in vivo whole plant, 24 Hour Protectant; conditions: for SEPTTR in vivo 1 Day Protectant: % control of fungal infection vs untreated plants; for pest or weed control at 100 ppm: Zymoseptoria tritici, 24 h, control of fungal infection vs untreated plants, read-out: SEPTTR in vivo 1 Day Protectant
[11] = test system: Leptosphaeria nodorum—LEPTNO; assay: Glume Blotch of Wheat, in vivo whole plant, 24 Hour Protectant; conditions: for pest or weed control at 100 ppm: Leptosphaeria, read-out: LEPTNO in vivo 1 Day Protectant
[12] = 100 ppm spray, wheat, 24 hour protectant
[13] = 100 ppm spray, wheat, 24 hour protectant, % control of fungal infection vs untreated plants
[14] = wheat plants sprayed at 100 ppm, inoculated after 24 hours
[15] = wheat plants sprayed at 100 ppm, inoculated after 24 hours, control of fungal infection vs untreated plants
[16] = 100 ppm spray, wheat, 24 hour protectant, control of fungal infection vs untreated plants
[17] = 100 ppm spray, 24 hour protectant, wheat
[18] = 100 ppm spray, 24 hour protectant, wheat, control of fungal infection vs untreated plants

| Compound | inhibition at 25 ppm [1] [%] | inhibition at 25 ppm [2] [%] | inhibition at 25 ppm ([3]; 25 ppm in growth medium) [%] | inhibition at 25 ppm ([4]; 25 ppm in growth medium) [%] | inhibition at 25 ppm [5] [%] | inhibition at 25 ppm [6] [%] | pest or weed control at 100 ppm [7] [%] | pest or weed control at 100 ppm [8, 12] [%] | pest or weed control at 100 ppm [9, 16] [%] | pest or weed control at 100 ppm [10, 12] [%] | pest or weed control at 100 ppm [8, 17] [%] | pest or weed control at 100 ppm [9, 18] [%] | pest or weed control at 100 ppm [10, 17] [%] | pest or weed control at 100 ppm [11, 18] [%] | further results |
| --- | --- | --- | --- | --- | --- | --- | --- | --- | --- | --- | --- | --- | --- | --- | --- |
| COc1ccnc(C(=O)N[C@H]2COC(=O)[C@H](Cc3ccccc3)[C@@H](OC(=O)C(C)C)[C@H](C)OC2=O)c1OC(=O)C=C(C)C [Compound 607] | < 80 | < 80 | < 80 | > 80 | < 80 | < 80 | < 25 |  |  |  |  |  |  |  | PUCCRT in vivo 1 Day Protectant [8, 12]: + +; pest or weed control at 100 ppm [9, 13]: < 25%; SEPTTR in vivo 1 Day Protectant [10, 12]: + +; pest or weed control at 100 ppm [11, 13]: 25 to 74% |
| O=C(Nc1cccc(Oc2cccc(C(F)(F)F)c2)c1)c1nc(Br)ccc1O [Compound 495] | < 80 | < 80 |  |  | < 80 | < 80 | < 25 |  |  |  |  |  |  |  | inhibition at 25 ppm ([3]; 25 ppm in the growth medium): < 80%; inhibition at 25 ppm ([4]; 25 ppm in the growth medium): < 80%; pest or weed control at 100 ppm [8, 14]: 25 to 74%; pest or weed control at 100 ppm [9, 15]: 25 to 74%; pest or weed control at 100 ppm [10, 14]: 25 to 74%; pest or weed control at 100 ppm [11, 15]: < 25% |
| COc1ccnc(C(=O)N[C@H]2COC(=O)[C@H](Cc3ccccc3)[C@@H](OC(=O)C3CC3)[C@H](C)OC2=O)c1O [Compound 387] | > 80 | > 80 | > 80 | > 80 | > 80 | < 80 | < 25 | 25 to 74 | 25 to 74 | 25 to 74 |  |  |  |  | LEPTNO in vivo 1 Day Protectant [11, 16]: + + |
| COc1ccnc(C(=O)Nc2ccc(Oc3cccc(C#N)c3)cc2)c1O [Compound 421] | < 80 | < 80 | < 80 | < 80 | < 80 | < 80 | < 25 | < 25 | < 25 | < 25 |  |  |  |  | pest or weed control at 100 ppm [11, 16]: 25 to 74% |
| COc1ccnc(C(=O)NC/C=C(\C)CCC=C(C)C)c1O [Compound 242] | > 80 | > 80 | > 80 | > 80 | > 80 | > 80 | < 25 |  |  |  | < 25 | < 25 | 25 to 74 | < 25 |  |
| COc1ccnc(C(=O)N[C@@H](Cc2ccc(OCc3ccccc3)cc2)C(=O)O)c1O [Compound 337] | < 80 | < 80 | < 80 | < 80 | < 80 | < 80 | < 25 | 25 to 74 | < 25 | < 25 |  |  |  |  | LEPTNO in vivo 1 Day Protectant [11, 16]: + + |
| Cc1cccc(CNC(=O)c2ncccc2O)c1 [Compound 222] | < 80 | < 80 | < 80 | < 80 | < 80 | < 80 | < 25 |  |  |  | 25 to 74 | < 25 | < 25 | < 25 |  |
| COc1ccnc(C(=O)NC2CCC(Sc3ccccc3)CC2)c1O (stereo not drawn) [Compound 275] | < 80 | > 80 | > 80 | > 80 | < 80 | < 80 | < 25 |  |  |  | < 25 | < 25 | 25 to 74 | 25 to 74 |  |
| COc1ccnc(C(=O)N[C@H]2COC(=O)[C@H](Cc3ccccc3)[C@@H](OC(=O)C(C)C)[C@H](C)OC2=O)c1OC(=O)CCCBr [Compound 625] | < 80 | < 80 | < 80 | > 80 | < 80 | < 80 | < 25 |  |  |  |  |  |  |  | PUCCRT in vivo 1 Day Protectant [8, 12]: + +; pest or weed control at 100 ppm [9, 13]: < 25%; SEPTTR in vivo 1 Day Protectant [10, 12]: + +; LEPTNO in vivo 1 Day Protectant [11, 13]: + + |
| CCCO[C@@H]1[C@@H](OCCC)[C@H](OCCC)CO[C@H]1NC(=O)c1nccc(OC)c1O [Compound 331] | > 80 | < 80 | < 80 | < 80 | < 80 | < 80 | < 25 | < 25 | < 25 | < 25 |  |  |  |  | pest or weed control at 100 ppm [11, 16]: 25 to 74% |
| COc1ccnc(C(=O)Nc2cccc(Oc3ccc(Cl)cc3)c2)c1O [Compound 440] | > 80 | < 80 | > 80 | > 80 | < 80 | < 80 | < 25 | 25 to 74 | < 25 | 25 to 74 |  |  |  |  | LEPTNO in vivo 1 Day Protectant [11, 16]: + + |
| COc1ccnc(C(=O)N[C@@H]2O[C@H](COC(C)=O)[C@H](OC(C)=O)[C@H](OC(C)=O)[C@H]2OC(C)=O)c1OC(C)=O [Compound 591] | < 80 | < 80 |  |  | < 80 | < 80 | < 25 |  |  |  |  |  |  |  | inhibition at 25 ppm ([3]; 25 ppm in the growth medium): < 80%; inhibition at 25 ppm ([4]; 25 ppm in the growth medium): < 80%; pest or weed control at 100 ppm [8, 14]: < 25%; pest or weed control at 100 ppm [9, 15]: < 25%; pest or weed control at 100 ppm [10, 14]: 25 to 74%; pest or weed control at 100 ppm [11, 15]: 25 to 74% |
| Cc1cc(C)cc(NC(=O)c2ncccc2O)c1 [Compound 215] | < 80 | < 80 | > 80 | < 80 | < 80 | < 80 | < 25 |  |  |  | < 25 | < 25 | < 25 | < 25 |  |
| COc1ccnc(C(=O)NC2COC(C)C2)c1O (stereo not drawn) [Compound 310] | < 80 | < 80 | < 80 | < 80 | < 80 | < 80 | < 25 |  |  |  | < 25 | 25 to 74 | < 25 | < 25 |  |
| COc1ccnc(C(=O)N[C@H]2[C@@H](OC(C)=O)O[C@H](COC(C)=O)[C@@H](OC(C)=O)[C@@H]2OC(C)=O)c1O [Compound 335] | < 80 | < 80 | < 80 | < 80 | < 80 | < 80 | 25 to 74 | < 25 | < 25 | < 25 |  |  |  |  | pest or weed control at 100 ppm [11, 16]: 25 to 74% |
